From the NIST ThermoML archive (doi:10.1021/je049777o)
“And” between values parts separate entries of the source, which are not always exact repeats. Equal values may be shown once. ± gives the expanded uncertainty stated by the source.

Key:
[1] = 101.3 kPa, Liquid
[2] = xn = mol fraction of the nth substance listed; settings: 101.3 kPa, Liquid

| SMILES | mass density ([1]; 293.15 K) [kg/m3] | viscosity ([1]; 293.15 K) | mass density ([1]; 298.15 K) [kg/m3] | viscosity ([1]; 298.15 K) | mass density ([1]; 303.15 K) [kg/m3] | viscosity ([1]; 303.15 K) | mass density ([1]; 313.15 K) [kg/m3] | viscosity ([1]; 313.15 K) | mass density ([1]; 323.15 K) [kg/m3] | viscosity ([1]; 323.15 K) | mass density ([1]; 333.15 K) [kg/m3] | viscosity ([1]; 333.15 K) [mPa·s] | mass density ([1]; 343.15 K) [kg/m3] | viscosity ([1]; 343.15 K) [mPa·s] | other results |
| --- | --- | --- | --- | --- | --- | --- | --- | --- | --- | --- | --- | --- | --- | --- | --- |
| Clc1ccccc1 [chlorobenzene] | 1106.74 ± 0.4 | 0.8084 ± 0.021 mPa·s | 1101.33 ± 0.4 | 0.7422 ± 0.019 mPa·s | 1095.96 ± 0.39 | 0.7053 ± 0.018 mPa·s | 1085.06 ± 0.38 | 0.631 ± 0.017 mPa·s | 1074.26 ± 0.36 | 0.5677 ± 0.015 mPa·s | 1063.32 ± 0.35 | 0.5069 ± 0.014 | 1052.44 ± 0.34 | 0.4658 ± 0.013 |  |
| COC(=O)OC [dimethyl carbonate] | 1069.54 ± 0.24 | 0.6163 ± 0.016 mPa·s and 0.6173 ± 0.0096 mPa·s | 1062.95 ± 0.23 | 0.5771 ± 0.016 mPa·s and 0.5734 ± 0.0093 mPa·s | 1056.35 ± 0.23 | 0.5433 ± 0.015 mPa·s and 0.5403 ± 0.009 mPa·s | 1043.01 ± 0.21 | 0.482 ± 0.014 mPa·s and 0.4807 ± 0.0086 mPa·s | 1029.59 ± 0.19 | 0.4319 ± 0.013 mPa·s and 0.427 ± 0.0082 mPa·s | 1016 ± 0.18 | 0.3893 ± 0.012 | 1002.32 ± 0.16 | 0.3527 ± 0.011 |  |
| COC(=O)OC [dimethyl carbonate] + Clc1ccccc1 |  |  |  |  |  |  |  |  |  |  |  |  |  |  | mass density ([2]; 293.15 K, x1 = 1): 1069.54 ± 0.24 kg/m3; viscosity ([2]; 293.15 K, x1 = 1): 0.6163 ± 0.016 mPa·s; mass density ([2]; 298.15 K, x1 = 1): 1062.95 ± 0.23 kg/m3; viscosity ([2]; 298.15 K, x1 = 1): 0.5771 ± 0.016 mPa·s; mass density ([2]; 303.15 K, x1 = 1): 1056.35 ± 0.23 kg/m3; viscosity ([2]; 303.15 K, x1 = 1): 0.5433 ± 0.015 mPa·s; mass density ([2]; 313.15 K, x1 = 1): 1043.01 ± 0.21 kg/m3; viscosity ([2]; 313.15 K, x1 = 1): 0.482 ± 0.014 mPa·s; mass density ([2]; 323.15 K, x1 = 1): 1029.59 ± 0.19 kg/m3; viscosity ([2]; 323.15 K, x1 = 1): 0.4319 ± 0.013 mPa·s; mass density ([2]; 333.15 K, x1 = 1): 1016 ± 0.18 kg/m3; viscosity ([2]; 333.15 K, x1 = 1): 0.3893 ± 0.012 mPa·s; mass density ([2]; 343.15 K, x1 = 1): 1002.32 ± 0.16 kg/m3; viscosity ([2]; 343.15 K, x1 = 1): 0.3527 ± 0.011 mPa·s |
| CCCCCCC [heptane] | 687.14 ± 0.71 | 0.4038 ± 0.0083 mPa·s | 682.91 ± 0.71 | 0.3831 ± 0.0082 mPa·s | 678.61 ± 0.71 | 0.3629 ± 0.008 mPa·s | 669.91 ± 0.72 | 0.3274 ± 0.0078 mPa·s | 661.16 ± 0.73 | 0.298 ± 0.0076 mPa·s | 652.26 ± 0.75 | 0.2704 ± 0.0074 | 643.31 ± 0.76 | 0.2487 ± 0.0072 |  |
| CCCCCCC [heptane] + COC(=O)OC |  |  |  |  |  |  |  |  |  |  |  |  |  |  | mass density ([2]; 293.15 K, x2 = 0): 687.14 ± 0.71 kg/m3; viscosity ([2]; 293.15 K, x2 = 0): 0.4038 ± 0.0083 mPa·s; mass density ([2]; 298.15 K, x2 = 0): 682.91 ± 0.71 kg/m3; viscosity ([2]; 298.15 K, x2 = 0): 0.3831 ± 0.0082 mPa·s; mass density ([2]; 303.15 K, x2 = 0): 678.61 ± 0.71 kg/m3; viscosity ([2]; 303.15 K, x2 = 0): 0.3629 ± 0.008 mPa·s; mass density ([2]; 313.15 K, x2 = 0): 669.91 ± 0.72 kg/m3; viscosity ([2]; 313.15 K, x2 = 0): 0.3274 ± 0.0078 mPa·s; mass density ([2]; 323.15 K, x2 = 0): 661.16 ± 0.73 kg/m3; viscosity ([2]; 323.15 K, x2 = 0): 0.298 ± 0.0076 mPa·s; mass density ([2]; 333.15 K, x2 = 0): 652.26 ± 0.75 kg/m3; viscosity ([2]; 333.15 K, x2 = 0): 0.2704 ± 0.0074 mPa·s; mass density ([2]; 343.15 K, x2 = 0): 643.31 ± 0.76 kg/m3; viscosity ([2]; 343.15 K, x2 = 0): 0.2487 ± 0.0072 mPa·s |
| CCCCCC [hexane] | 662 ± 0.67 | 0.302 ± 0.0075 mPa·s | 657.44 ± 0.68 | 0.2886 ± 0.0074 mPa·s | 652.87 ± 0.69 | 0.2774 ± 0.0073 mPa·s | 643.55 ± 0.7 | 0.2504 ± 0.0072 mPa·s | 634.07 ± 0.71 | 0.2339 ± 0.0071 mPa·s | 624.39 ± 0.73 | 0.2114 ± 0.007 |  |  |  |
| CCCCCC [hexane] + COC(=O)OC |  |  |  |  |  |  |  |  |  |  |  |  |  |  | mass density ([2]; 293.15 K, x2 = 0): 662 ± 0.67 kg/m3; viscosity ([2]; 293.15 K, x2 = 0): 0.302 ± 0.0075 mPa·s; mass density ([2]; 298.15 K, x2 = 0): 657.44 ± 0.68 kg/m3; viscosity ([2]; 298.15 K, x2 = 0): 0.2886 ± 0.0074 mPa·s; mass density ([2]; 303.15 K, x2 = 0): 652.87 ± 0.69 kg/m3; viscosity ([2]; 303.15 K, x2 = 0): 0.2774 ± 0.0073 mPa·s; mass density ([2]; 313.15 K, x2 = 0): 643.55 ± 0.7 kg/m3; viscosity ([2]; 313.15 K, x2 = 0): 0.2504 ± 0.0072 mPa·s; mass density ([2]; 323.15 K, x2 = 0): 634.07 ± 0.71 kg/m3; viscosity ([2]; 323.15 K, x2 = 0): 0.2339 ± 0.0071 mPa·s; mass density ([2]; 333.15 K, x2 = 0): 624.39 ± 0.73 kg/m3; viscosity ([2]; 333.15 K, x2 = 0): 0.2114 ± 0.007 mPa·s |
